Results taken from patent US12370235B2, “Synthetic, non-natural antimicrobial peptides inspired by Staphylococcus auricularis delta toxin” (University of Saskatchewan, priority 2021, dated 2025).
Ends that are not written are not given here.

Assays:
[1] = Circular dichroism spectroscopy; type: physicochemical; details: CD, 50% (v/v) TFE
From the text: The δ-toxins and the PSMs are characterized as α-helical peptides that form amyloid fibers^48. Although the propensity of individual peptides to form amyloids is correlated to their cytotoxicity^49, the amyloid form is not directly implicated in cell membrane disruption^50. […] CD spectroscopy was used to investigate the secondary structure of a subset of peptides within the collection (FIG. 4A, Table 5). The STIP variants adopted α-helical forms in 50% (v/v) trifluoroethanol (TFE), though unlike the full-length S. auricularis δ-toxin, they were unstructured in water. […] Specifically, peptides characterized by the greatest and least α-helical content in TFE had MICs above the highest tested threshold.
Circular dichroism spectroscopy. Peptides were dissolved in water at concentrations between 0.3 and 0.5 mg/mL. CD spectra were recorded on an Applied Photophysics Chirascan Plus CD spectrophotometer at room temperature in a 0.1 cm path-length quartz cuvette. Spectra were recorded from 180 to 260 nm.

[2] = tested on: S. aureus ATCC BAA-2094 (MRSA SCCmec type V); assay: MIC, broth dilution; type: cell-based, Staphylococcus aureus; details: Table 5; STIP3 variants, highest concentration 100 μg/mL
In short: (§1)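 Peptides of 95% purity tested as 2-fold dilution series against bacteria diluted to OD 6×10^−4 in cation-adjusted Mueller Hinton broth. Standing cultures incubated overnight at 37° C; MIC is the lowest concentration with no visible growth.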

[3] = tested on: S. aureus ATCC 29213; assay: MIC, broth dilution; type: cell-based, Staphylococcus aureus; details: Table 5; STIP3 variants, highest concentration 100 μg/mL
In short: as §1

[4] = tested on: S. aureus ATCC BAA-42 (MRSA SCCmec type VI); assay: MIC, broth dilution; type: cell-based, Staphylococcus aureus; details: Table 5; STIP3 variants, highest concentration 100 μg/mL
In short: as §1

[5] = tested on: S. aureus ATCC BAA-1683 (MRSA SCCmec type IV); assay: MIC, broth dilution; type: cell-based, Staphylococcus aureus; details: Table 5; STIP3 variants, highest concentration 100 μg/mL
In short: as §1

[6] = tested on: S. aureus ATCC BAA-41 (MRSA SCCmec type II); assay: MIC, broth dilution; type: cell-based, Staphylococcus aureus; details: Table 5; STIP3 variants, highest concentration 100 μg/mL
In short: as §1

[7] = tested on: S. aureus ATCC BAA-2313 (MRSA SCCmec type XI); assay: MIC, broth dilution; type: cell-based, Staphylococcus aureus; details: Table 5; STIP3 variants, highest concentration 100 μg/mL
In short: as §1

[8] = tested on: S. aureus ATCC 33592 (MRSA SCCmec type III); assay: MIC, broth dilution; type: cell-based, Staphylococcus aureus; details: Table 5; STIP3 variants, highest concentration 100 μg/mL
In short: as §1

[9] = tested on: S. aureus ATCC BAA-44 (MRSA SCCmec type I); assay: MIC, broth dilution; type: cell-based, Staphylococcus aureus; details: Table 5; STIP3 variants, highest concentration 100 μg/mL
In short: as §1

[10] = tested on: C. albicans MYA-2876; assay: MIC, YPD broth; type: cell-based, Candida albicans; details: Table 8
In short: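 Yeast cells were diluted in YPD broth, and 180 μl aliquots were mixed with 20 μl of peptide from 2-fold serial dilutions in flat-bottom 96-well microtitre plates. Wells receiving 20 μl sterile water served as controls. After standing incubation overnight at 37° C, the MIC was taken as the lowest peptide concentration with no visible microbial growth.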

[11] = tested on: C. albicans Y537; assay: MIC, YPD broth; type: cell-based, Candida albicans; details: Table 8
[12] = tested on: Candida duobushaemulonii AR 392; assay: MIC, YPD broth, CDC and FDA AR Candida isolate panel; type: cell-based
In short: (§2)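 Medium: 10 g/L yeast extract, 20 g/L peptone, 20 g/L dextrose. Inoculum OD […]; peptides 95% purity, 2-fold series; overnight 37° C, standing.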

[13] = tested on: Kodamae ohmeri AR 396; assay: as above; type: cell-based
In short: as §2

[14] = tested on: Candida haemulonii AR 395; assay: as above; type: cell-based; details: Table 9 below the line: only 200 or 100 μg/mL tested; values reported as 100 are ≤100 μg/mL
In short: as §2

[15] = tested on: Candida duobushaemulonii AR 391; assay: as above; type: cell-based
In short: as §2

[16] = tested on: Saccharomyces cerevisiae AR 399; assay: as above; type: cell-based
In short: as §2

[17] = tested on: Candida krusei AR 397; assay: as above; type: cell-based
In short: as §2

[18] = tested on: Saccharomyces cerevisiae AR 400; assay: as above; type: cell-based
In short: as §2

[19] = tested on: Candida duobushaemulonii AR 394; assay: as above; type: cell-based
In short: as §2

[20] = tested on: Candida haemulonii AR 393; assay: as above; type: cell-based; details: Table 9 below the line: only 200 or 100 μg/mL tested; values reported as 100 are ≤100 μg/mL
In short: as §2

[21] = tested on: Candida lusitaniae AR 398; assay: as above; type: cell-based
In short: as §2

[22] = tested on: Mannheimia haemolytica ATCC 33393; assay: MIC, broth dilution; type: cell-based; details: Table 11; highest concentration 25 μg/mL
In short: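 Read-out is the lowest peptide concentration showing no growth after an overnight standing culture at 37 °C. Two-fold serial dilutions of 95%-pure peptide were tested against M. haemolytica ATCC 33393 at OD 6×10^−4 in cation-adjusted MH broth.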

[23] = Table 9 below the line: only 200 or 100 μg/mL tested, values reported as 100 are ≤100 μg/mL
[24] = Table 9 top part: titrations from 1.56 to 100 μg/mL

Row | Substance | α helicity (%) [1] | MIC S. aureus ATCC BAA 2094 (V) [2] | MIC S. aureus ATCC 29213 [3] | MIC S. aureus ATCC BAA 42 (VI) [4] | MIC S. aureus ATCC BAA 1683 (IV) [5] | MIC S. aureus ATCC BAA 41 (II) [6] | MIC S. aureus ATCC BAA 2313 (XI) [7] | MIC S. aureus ATCC 33592 (III) [8] | MIC S. aureus ATCC BAA 44 (I) [9] | MIC C. albicans MYA-2876 [10] | MIC C. albicans Y537 [11] | MIC (μg/mL) Candida duobushaemulonii AR 392 [12, 23] | MIC (μg/mL) Kodamae ohmeri AR 396 [13, 23] | MIC (μg/mL) Candida haemulonii AR 395 [14] | MIC (μg/mL) Candida duobushaemulonii AR 391 [15, 23] | MIC (μg/mL) Saccharomyces cerevisiae AR 399 [16, 23] | MIC (μg/mL) Candida krusei AR 397 [17, 23] | MIC (μg/mL) Saccharomyces cerevisiae AR 400 [18, 23] | MIC (μg/mL) Candida duobushaemulonii AR 394 [19, 23] | MIC (μg/mL) Candida haemulonii AR 393 [20] | other results
1 | TVGGLVKWILATVKKFA-NH2 [STIP3-28, TVGGLVKWILATVKKFA-NH2] | 75% | 6.25 µg/mL | 25 µg/mL | 12.5 µg/mL | 12.5 µg/mL | 12.5 µg/mL | 12.5 µg/mL | 6.25 µg/mL | 12.5 µg/mL | 12.5 µg/mL | 25 µg/mL | > (values below the line were determined using two concentrations of peptide 200 or 100 μg/mL) | ≤ 100 µg/mL | ≤ 100 µg/mL | > (values below the line were determined using two concentrations of peptide 200 or 100 μg/mL) | ≤ 100 µg/mL | ≤ 100 µg/mL | ≤ 100 µg/mL | > (values below the line were determined using two concentrations of peptide 200 or 100 μg/mL) | > (values below the line were determined using two concentrations of peptide 200 or 100 μg/mL) | MIC (μg/mL) Candida lusitaniae AR 398 [21, 23]: ≤ 100 µg/mL; MIC (μg/mL) M. haemolytica [22]: 12.5 µg/mL
2 | TVKGLVKWILATVKKFA [STIP3-16, TVKGLVKWILATVKKFA] | 45% | 100 µg/mL | 100 µg/mL | 50 µg/mL | > (no inhibition was observed at the highest concentration of peptide tested: 100 μg/mL for the STIP3 variants) | 50 µg/mL | 100 µg/mL | 50 µg/mL | 100 µg/mL | 12.5 µg/mL |  | > (values below the line were determined using two concentrations of peptide 200 or 100 μg/mL) | ≤ 100 µg/mL | > (values below the line were determined using two concentrations of peptide 200 or 100 μg/mL) | > (values below the line were determined using two concentrations of peptide 200 or 100 μg/mL) | ≤ 100 µg/mL | ≤ 100 µg/mL | ≤ 100 µg/mL | > (values below the line were determined using two concentrations of peptide 200 or 100 μg/mL) | > (values below the line were determined using two concentrations of peptide 200 or 100 μg/mL) | MIC (μg/mL) Candida lusitaniae AR 398 [21, 23]: ≤ 100 µg/mL; MIC (μg/mL) M. haemolytica [22]: 6.25 µg/mL
3 | TVKGLVKWILNVVKKFA [STIP3-14, TVKGLVKWILNVVKKFA] | 64% | 50 µg/mL | 25 µg/mL | 25 µg/mL | 25 µg/mL | 25 µg/mL | 12.5 µg/mL | 12.5 µg/mL | 25 µg/mL | 12.5 µg/mL | 50 µg/mL |  |  |  |  |  |  |  |  |  | MIC (μg/mL) Candida duobushaemulonii AR 392 [12, 24]: 50 µg/mL; MIC (μg/mL) Kodamae ohmeri AR 396 [13, 24]: 25 µg/mL; MIC (μg/mL) Candida duobushaemulonii AR 391 [15, 24]: 50 µg/mL; MIC (μg/mL) Saccharomyces cerevisiae AR 399 [16, 24]: 25 µg/mL; MIC (μg/mL) Candida krusei AR 397 [17, 24]: 12.5 µg/mL; MIC (μg/mL) Saccharomyces cerevisiae AR 400 [18, 24]: 6.25 µg/mL; MIC (μg/mL) Candida duobushaemulonii AR 394 [19, 24]: 100 µg/mL; MIC (μg/mL) Candida lusitaniae AR 398 [21, 24]: 6.25 µg/mL
4 | TVRALVKWILRTVAKFA [STIP3-20, TVRALVKWILRTVAKFA] |  | 25 µg/mL | 25 µg/mL | 25 µg/mL | 25 µg/mL | 12.5 µg/mL | 50 µg/mL | 25 µg/mL | 25 µg/mL | > (> symbol indicates that no inhibition was observed at the highest concentration of peptide tested: 100 μg/mL) | > (> symbol indicates that no inhibition was observed at the highest concentration of peptide tested: 100 μg/mL) | > (values below the line were determined using two concentrations of peptide 200 or 100 μg/mL) | > (values below the line were determined using two concentrations of peptide 200 or 100 μg/mL) | > (values below the line were determined using two concentrations of peptide 200 or 100 μg/mL) | > (values below the line were determined using two concentrations of peptide 200 or 100 μg/mL) | > (values below the line were determined using two concentrations of peptide 200 or 100 μg/mL) | > (values below the line were determined using two concentrations of peptide 200 or 100 μg/mL) | 200 µg/mL | > (values below the line were determined using two concentrations of peptide 200 or 100 μg/mL) | > (values below the line were determined using two concentrations of peptide 200 or 100 μg/mL) | MIC (μg/mL) Candida lusitaniae AR 398 [21, 23]: > (values below the line were determined using two concentrations of peptide 200 or 100 μg/mL); MIC (μg/mL) M. haemolytica [22]: 25 µg/mL
